Earlier results on 1 molecule are cited in patent US20260285945A1, “OMOMYC AND KRAS INHIBITORS COMBINATION THERAPY FOR THE TREATMENT OF CANCER” (PEPTOMYC, S.L., priority 2023, published 2026).

For this series, the system named is cancer cell proliferation. To be noted: single agent; background of the invention.

Regarding `CNCc1ccccc1-c1csc([C@@H](C)Nc2nc(C)nc3cc(OC)c(OC)cc23)c1` [BAY-293], the “Inhibition of cancer cell proliferation, potency” value was “weak potency”.
